The text below walks through data of PubChem BioAssay (NCI).

Where “and” joins values, the source holds several entries; their conditions need not be identical. Equal entries are not always repeated.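 Cultured in 96-well plates, cells were exposed to test compound for 48 hours across five concentrations. At the GI50, growth is halved. Definition used: TGI = concentration required for complete inhibition of growth.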

Some test systems named below: HCC-2998 colon; HS 578T breast; MOLT-4 leukemia; NCI-H460 lung; NCI/ADR-RES ovarian; OVCAR-8 ovarian; SF-539 CNS; SK-MEL-2 melanoma; SN12C renal; TK-10 renal.
Experiment in all cases: inhibition of tumour cell growth, NCI panel, 48 h

As to `O=C(Nc1ccccc1)N(C1=NCC(CI)S1)c1ccc(F)c(F)c1` (centres undefined), the TGI was more than 100 µM in the experiment with HCC-2998 colon; more than 100 µM with HS 578T breast; 61.4 µM with MOLT-4 leukemia; more than 100 µM with NCI-H460 lung; more than 100 µM with NCI/ADR-RES ovarian; more than 100 µM in the experiment with OVCAR-8 ovarian. Moreover, the TGI in the experiment with SF-539 CNS was more than 100 µM; in the experiment on SK-MEL-2 melanoma, 60.5 µM; with SN12C renal, more than 100 µM; in the experiment on TK-10 renal, more than 100 µM.
`CC(=O)c1c(-c2cccc3ccccc23)c(C#N)c(=S)n(C2OC(CO)C(O)C(O)C2O)c1C` (centres undefined): the TGI in the experiment on HCC-2998 colon, with HS 578T breast, with MOLT-4 leukemia, in the experiment on NCI-H460 lung, with NCI/ADR-RES ovarian and with OVCAR-8 ovarian was more than 100 µM in each case. For the same molecule, the TGI with SF-539 CNS, with SK-MEL-2 melanoma, in the experiment with SN12C renal and in the experiment with TK-10 renal was more than 100 µM each time. Besides, the GI50 in the experiment on SF-539 CNS was > 100 µM and 39.6 µM.
For `O=c1[nH]c2nc3ccccc3c(=O)n2/c1=C/c1ccc(Cl)cc1`, the TGI in the experiment with HCC-2998 colon is 65.3 µM; with HS 578T breast, 65.2 µM; in the experiment with MOLT-4 leukemia it was more than 100 µM; with NCI/ADR-RES ovarian, more than 100 µM; in the experiment on OVCAR-8 ovarian, 58.6 µM; in the experiment on SF-539 CNS, 47.7 µM. Besides, the TGI with SK-MEL-2 melanoma, with SN12C renal and in the experiment on TK-10 renal was more than 100 µM in each case.
For the molecule `COC1CC(N)(c2ccccc2)C(O)C(C)O1` (centres undefined), the TGI in the experiment on HCC-2998 colon, in the experiment with HS 578T breast, in the experiment with MOLT-4 leukemia, with NCI-H460 lung, in the experiment on NCI/ADR-RES ovarian and with OVCAR-8 ovarian was more than 100 µM each time. Besides, the TGI in the experiment on SF-539 CNS, in the experiment on SK-MEL-2 melanoma and in the experiment on SN12C renal was more than 100 µM throughout.
Turning to `CC(C)(C)c1ccccc1N1C(=O)c2ccc3c4c(ccc(c24)C1=O)N(c1ccccc1C(C)(C)C)C3=O`, the TGI in the experiment with HCC-2998 colon, in the experiment with HS 578T breast, in the experiment with MOLT-4 leukemia, with NCI-H460 lung, in the experiment on NCI/ADR-RES ovarian and in the experiment on OVCAR-8 ovarian was more than 100 µM throughout. Moreover, the TGI in the experiment with SF-539 CNS, in the experiment on SK-MEL-2 melanoma and with SN12C renal was more than 100 µM in each case.
Consider `O=C(Nc1ccccc1F)c1cc2ccc(O)cc2oc1=Nc1cccc(F)c1`, for which the TGI turned out to be 33.8 µM in the experiment with HCC-2998 colon; 84.4 µM with HS 578T breast; 44.6 µM in the experiment on MOLT-4 leukemia; 57.3 µM with NCI-H460 lung; 43 µM in the experiment with NCI/ADR-RES ovarian; 23.8 µM in the experiment with OVCAR-8 ovarian. For the same molecule, the TGI in the experiment on SF-539 CNS came to 42.7 µM; in the experiment on SK-MEL-2 melanoma it was 62.6 µM.
In the case of `O=c1[nH]/c(=C/c2ccc(OCc3ccccc3)cn2)c(=O)[nH]/c1=C/c1ccccc1`, the TGI in the experiment on HCC-2998 colon is 0.521 µM; with HS 578T breast, more than 100 µM; with MOLT-4 leukemia, more than 100 µM; in the experiment on NCI-H460 lung, more than 100 µM; with NCI/ADR-RES ovarian, 0.229 µM; with OVCAR-8 ovarian it was more than 80.9 µM. For the same molecule, the TGI with SF-539 CNS was more than 67 µM; in the experiment on SK-MEL-2 melanoma, more than 100 µM; with TK-10 renal, more than 100 µM.
Consider `C#CCNC(CSSCC(N)C(=O)O)C(=O)O` (centres undefined), for which the TGI in the experiment with HCC-2998 colon, in the experiment with HS 578T breast, with MOLT-4 leukemia, in the experiment on NCI/ADR-RES ovarian, with OVCAR-8 ovarian and in the experiment on SF-539 CNS was more than 100 µM in each case. The TGI in the experiment on SK-MEL-2 melanoma and in the experiment on TK-10 renal was more than 100 µM each time.
In the case of `O=C(O)CC(Cc1ccccc1Cl)C(=O)O` (centres undefined), the TGI with HCC-2998 colon, in the experiment on HS 578T breast, in the experiment on MOLT-4 leukemia, in the experiment with NCI-H460 lung, in the experiment on NCI/ADR-RES ovarian and with OVCAR-8 ovarian was more than 100 µM throughout. The TGI in the experiment on SK-MEL-2 melanoma, in the experiment with SN12C renal and in the experiment on TK-10 renal was more than 100 µM throughout.
Regarding `CCOC(=O)c1ccc(-n2[nH]nc(C(N)=O)c2=O)cc1`, the TGI in the experiment with HCC-2998 colon, in the experiment with HS 578T breast, in the experiment on MOLT-4 leukemia, with NCI-H460 lung, in the experiment with NCI/ADR-RES ovarian and with OVCAR-8 ovarian was more than 100 µM throughout. Moreover, the TGI with SK-MEL-2 melanoma, in the experiment on SN12C renal and in the experiment with TK-10 renal was more than 100 µM throughout.
On to `CN(C)CCNc1ccc2c(=O)n(CCN(C)C)c(=O)n3c4ccc(O)cc4c(=O)c1c23`, for which the TGI in the experiment on HCC-2998 colon was 0.186 µM; in the experiment with HS 578T breast it was 0.961 µM; in the experiment with MOLT-4 leukemia, less than 0.01 µM; with NCI-H460 lung, 0.174 µM; in the experiment on NCI/ADR-RES ovarian it was 9.39 µM; with OVCAR-8 ovarian, 0.358 µM. Besides, the values for the TGI with SF-539 CNS, with SK-MEL-2 melanoma and with TK-10 renal were less than 0.0389 µM, 0.602 µM and 1.21 µM, respectively.
Take `Cc1ccc2nc(SCC(=O)N=Nc3c(O)[nH]c4ccccc34)n(-c3ccccc3)c(=O)c2c1`: the TGI was 28.6 µM with HCC-2998 colon; 46.2 µM in the experiment with HS 578T breast; 33.2 µM in the experiment on MOLT-4 leukemia; 29 µM in the experiment with NCI-H460 lung; 26.1 µM with NCI/ADR-RES ovarian; 19 µM in the experiment on SF-539 CNS. The TGI in the experiment with SK-MEL-2 melanoma came out at 13.2 µM; in the experiment on SN12C renal, 29.1 µM; with TK-10 renal, 29.2 µM.
